This is an account of results in a melting point compilation (Tetko et al.; mined from patent text by program, amines drawn as free bases though some values may be those of a salt).

On to `COC(=O)C(O)C(CC(C)C)NC(=O)C(Cc1c[nH]cn1)NC(=O)C(CC(=O)N(C)C)Cc1cccc2ccccc12` (mixture of isomers), for which the melting point (commonly the temperature, or range, at which the solid turns liquid) lay in the range of 117 to 121 °C.
Then `Cc1ccc2c(c1)C(C(F)(F)F)(C(F)(F)F)c1cc(C)ccc1O2`, with 136 to 137 °C.
Then `Clc1cc(Cl)c2c(c1)C[C@@H]1CCc3ccccc3[C@@H]1O2` (relative stereo), with 141 to 144 °C.
`CC(C)c1c(C(=O)c2cccc(C=CC#N)c2)[nH]c(=O)[nH]c1=O` came in with a melting point of 210 to 211 °C.
With `O=C(O)CCN1Cn2cc(C(=O)O)cc2-c2ccccc21` the figure was 234 to 236 °C; with `CCCCOc1c(C(=O)O)n(CC2CC2)c(=O)c2ccc(OCc3ccccc3)cc12`, 178 to 179 °C.
Consider `O=CC(=C(c1ccc(F)cc1)c1ccc(F)cc1)n1nnnc1-c1ccccc1`, for which the melting point lay in the range of 193 to 194 °C.
Turning to `CC(C)[C@H](NC1CCCCC1)C(=O)NCCCC(c1ccc(F)cc1)c1ccc(F)cc1`, the melting point is 49 to 53 °C.
`CCOC(=O)NNC(=O)NCCCC(=O)OC` had a melting point of 95 to 96 °C.
In the case of `CN1CN(C)c2nc3n(Cc4ccc(F)cc4)c(=O)cc(O)n3c2C1=O`, the melting point lay within 214 to 232 °C.
The compound `CCCCc1nc2c(N)nc3ccccc3c2n1CCCCCS(C)=O` (stereo not drawn) yielded a melting point of 119 to 121 °C.
With `O=C1NS(=O)(=O)c2cc(O)cc(O)c21` the figure was 286 °C.
With `O=[N+]([O-])c1cc(CO)ccc1Sc1nccnc1Cl` the figure was 110 to 113 °C; with `COC(=O)C1=C(C)NC(C=O)=C(C(=O)OC)C1c1cccc2c(=O)c(C)c(-c3ccccc3)oc12` (stereo not drawn), 216 °C.
The compound `C=C(C)COc1ccc(C(=O)C=Cc2c(Cl)cccc2Cl)c2oc3ccccc3c(=O)c12` gave a melting point of 135 to 137 °C.
`CC(C)(Cn1c(CO)nc2c(N)nc3ccccc3c21)NC(=O)C1CCCCC1` yielded a melting point of 248 to 250 °C.
`Cc1oncc1C(=O)N1CCSCC1` yielded a melting point of 64.5 to 65 °C.
With `O=C(c1cc(N2CCC(F)(F)CC2)ccn1)N(O)Cc1ccccc1`, the melting point fell in the range of 90 to 95 °C.
For the compound `Cc1nc2cccc(Cl)c2c(=O)o1`, the melting point was found to be 149 °C.
Then `Cc1ccccc1NC(=O)Nc1ccc(-c2c(Cc3ccccc3)sc3ncnc(N)c23)cc1`, with 245 to 248 °C.
`Cc1cc(SC2=C(O)CC(CCC(C)C)(C3CCCC3)OC2=O)c(C(C)(C)C)cc1CO` (stereo not drawn) showed a melting point of 74 to 77 °C.
With `Cc1c(NC(=O)c2ccc(-c3ccccc3)cc2F)ccc2cc(CN3CCCCC3)cnc12` the figure was 187 to 188 °C.
Then `CN(CCCN=C(NC#N)NCCSCc1csc(NC(=N)N)n1)CCC(c1ccccc1)c1ccccn1` (stereo not drawn), with 110 to 112 °C; and `CCCCOc1nc(N)c2[nH]c(=O)n(CCCCN(CCCN3CCCC3=O)Cc3cccc(CC(=O)OC)c3)c2n1`, with 115 to 116 °C; and `Cc1ccsc1C1CC(=O)c2c(C)ccnc2C1` (stereo not drawn), with 104 to 105 °C.
With `CC(C)[C@@H](CO)NS(=O)(=O)c1ccc(Cl)cc1` the figure was 83 to 85 °C; with `COc1ccc2c(c1)OCC(NC(=O)c1cc(Cl)ccc1OC)C2` (stereo not drawn), 92 to 93 °C; with `OCc1conc1-c1ccc(Cl)c(Cl)c1`, 103 to 104 °C.
The compound `O=C(OC1=CC(O)=CC(C=Cc2ccc(O)cc2)(C(=O)c2cc(O)c(O)c(O)c2)C1)c1cc(O)c(O)c(O)c1` (stereo not drawn) came in with a melting point of 210 to 212 °C.
With `COC(=O)CCc1ccc(NC(=O)NNC(C)=O)cc1` the figure was 159 to 165 °C; with `CN(C)c1cc2c(cc1Cl)NC(=O)CC(c1cccc(-c3csc(Nc4ccncc4)n3)c1)=N2`, 231 to 234 °C; with `CCCCCCCCCCCCCCCCNc1ccc(C(=O)OC2COC(c3ccccc3)OC2)cc1` (stereo not drawn), 115 to 117 °C.
In turn, `CCOC(=O)C(CC(=O)c1ccc(OC)cc1)C(=O)OCC` gave a melting point of 81 to 84 °C.
